Test results taken from patent publication US7446199B2, “Compositions useful as inhibitors of protein kinases” (Vertex Pharmaceuticals Incorporated, priority 2003, dated 2008).

Molecular target: T1, Aurora-2 (Homo sapiens, UniProt O14965)
T1 construct: addition of 10 μL of Aurora-2 stock solution to give a final concentration of 70 nM
T1 sequence (O14965 1-403): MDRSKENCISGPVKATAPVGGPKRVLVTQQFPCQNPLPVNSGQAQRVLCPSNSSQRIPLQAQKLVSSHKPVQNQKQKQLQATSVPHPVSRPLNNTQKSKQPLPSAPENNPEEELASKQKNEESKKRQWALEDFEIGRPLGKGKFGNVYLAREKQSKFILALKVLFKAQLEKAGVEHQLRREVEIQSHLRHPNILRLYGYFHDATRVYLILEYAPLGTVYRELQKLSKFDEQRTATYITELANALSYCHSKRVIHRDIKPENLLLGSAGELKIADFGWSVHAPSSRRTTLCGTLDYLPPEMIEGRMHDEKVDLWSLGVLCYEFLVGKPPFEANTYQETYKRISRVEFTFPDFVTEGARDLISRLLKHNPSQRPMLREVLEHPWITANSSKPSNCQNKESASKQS
Test: Inhibition of AUR-2, coupled enzyme assay
Assay type: biochemical
Details: 70 nM Aurora-2, 800 μM peptide LRRASLG, 30° C.
Procedure: Compounds are screened in the following manner for their ability to inhibit Aurora-2 using a standard coupled enzyme assay (Fox et al. (1998) Protein Sci 7, 2249). To an assay stock buffer solution containing 0.1M HEPES 7.5, 10 mM MgCl2, 1 mM DTT, 25 mM NaCl, 2.5 mM phosphoenolpyruvate, […], […], […], and 800 μM peptide (LRRASLG, American Peptide, Sunnyvale, Calif.) is added a DMSO solution of a compound of the present invention to a final concentration of 30 μM. The resulting mixture is incubated at 30° C. for 10 min. The reaction was initiated by the addition of 10 μL of Aurora-2 stock solution to give a final concentration of 70 nM in the assay. The rates of reaction are obtained by monitoring absorbance at 340 nm over a 5 minute read time at 30° C. using a BioRad Ultramark plate reader (Hercules, Calif.). The Ki values are determined from the rate data as a function of inhibitor concentration.

| Compound | Ki [nM] |
| --- | --- |
| Fc1cccc(-c2cnoc2-c2c[nH]c3ncc(Cl)cc23)c1F [Compound 44, 3-[4-(2,3-Difluoro-phenyl)-isoxazol-5-yl]-5-chloro-1H-pyrrolo[2,3-b]pyridine] | < 200 |
| Cc1cnc2[nH]cc(-c3oncc3-c3cccc(F)c3F)c2c1 [Compound 46, 3-[4-(2,3-Difluoro-phenyl)-isoxazol-5-yl]-5-methyl-1H-pyrrolo[2,3-b]pyridine] | 200 to 1000 |
| NC(=O)c1ccc(-c2cnc3[nH]cc(-c4oncc4-c4cccc(F)c4F)c3c2)cc1 [Compound 153] | < 200 |
